Laboratory results as given in PubChem BioAssay (NCI).
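Dose response: 5 concentrations. Exposure: 48 h. Format: 96-well plates. Endpoint: linear interpolation; highest concentration if not reached. Abbreviation: GI50, concentration required for 50% inhibition of growth. At the TGI there is no net growth.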

How the values were obtained:
Assay in all cases: NCI-60 cell line screen, 48 h
SW-620 colon = tested on: SW-620 colon
NCI-H460 lung = tested on: NCI-H460 lung
SF-539 CNS = tested on: SF-539 CNS
SR leukemia = tested on: SR leukemia
UACC-257 melanoma = tested on: UACC-257 melanoma
IGROV1 ovarian = tested on: IGROV1 ovarian
MOLT-4 leukemia = tested on: MOLT-4 leukemia
UO-31 renal = tested on: UO-31 renal
U251 CNS = tested on: U251 CNS
CAKI-1 renal = tested on: CAKI-1 renal

SMILES	GI50 (SW-620 colon)	TGI (SW-620 colon)	GI50 (NCI-H460 lung)	TGI (NCI-H460 lung)	GI50 (SF-539 CNS)	TGI (SF-539 CNS)	GI50 (SR leukemia)	TGI (SR leukemia)	GI50 (UACC-257 melanoma)	TGI (UACC-257 melanoma)	GI50 (IGROV1 ovarian)	TGI (IGROV1 ovarian)	GI50 (MOLT-4 leukemia)	TGI (MOLT-4 leukemia)	GI50 (UO-31 renal)	TGI (UO-31 renal)	GI50 (U251 CNS)	TGI (U251 CNS)	GI50 (CAKI-1 renal)	TGI (CAKI-1 renal)
CC1=C(C(=O)Nc2ccc(Cl)c(Cl)c2)C(c2cccc(Oc3ccccc3)c2)NC(=O)N1 (configuration not stated)	12.8 µM	43.8 µM	4.94 µM	32.8 µM	6.78 µM	17 µM	28.1 µM	> 50 µM	11.9 µM	42.6 µM	5.6 µM	32.6 µM	> 50 µM	> 50 µM	4.74 µM	> 50 µM	5.28 µM	14.7 µM	7.64 µM	20.4 µM
N#CC1=C(N)Oc2cc(O)ccc2C1c1cccc2ccccc12 (configuration not stated)	3.95 µM	> 100 µM	12.4 µM	32.5 µM	16.5 µM	36.5 µM	3.26 µM	14.8 µM	14.1 µM	30.1 µM	13.1 µM	29.4 µM	5.58 µM	31.3 µM	12.3 µM	25.8 µM	16.6 µM	43 µM	8.55 µM	27 µM
CCOC(=O)/C=C(/C)Sc1cc(O)c2ccccc2c1O	2.3 µM	5.39 µM	13.9 µM	30.4 µM	4.84 µM	11.7 µM	1.3 µM	4.16 µM	1.8 µM	3.87 µM	2.26 µM	17.8 µM	2.33 µM	7.08 µM	1.59 µM	11.1 µM	4.31 µM	24 µM	7.33 µM	20 µM
COc1ccc(-c2coc3c4c(ccc3c2=O)OCO4)cc1OC		> 100 µM		> 100 µM		> 100 µM		> 100 µM		> 100 µM		> 100 µM		> 100 µM		> 100 µM		> 100 µM		> 100 µM
O=C(CSC1CCc2ccccc21)N/N=C/c1ccccc1O (configuration not stated)	5.66 µM	81.4 µM	3.4 µM	14.6 µM	3.03 µM	17.2 µM	4.03 µM	34.4 µM			2.24 µM	37.4 µM	3.79 µM	56.7 µM	0.985 µM	17 µM	2.92 µM	42.5 µM	1.93 µM	12.7 µM
COc1cc(C=O)c(-c2cc(OC)c(OC)cc2C=O)cc1OC		> 100 µM		> 100 µM		> 100 µM		88.9 µM		> 100 µM		> 100 µM		> 100 µM		> 100 µM		> 100 µM		> 100 µM
N#CC(C(=O)C(=O)Nc1ccc(Cl)cc1)c1ccccc1 (configuration not stated)		> 100 µM		> 100 µM		> 100 µM		> 100 µM		> 100 µM		> 100 µM		> 100 µM		> 100 µM		> 100 µM		> 100 µM
Cc1nn(C(=O)c2ccc(Cl)cc2)c2c1C(/C=C/c1ccccc1)SC(N)=N2 (configuration not stated)		> 10 µM		> 10 µM		> 10 µM		> 10 µM		> 10 µM		> 10 µM		> 10 µM				> 10 µM		> 10 µM
OCc1ccn2c1[C@@H](O)CC2		> 100 µM		> 100 µM		> 100 µM		> 100 µM		> 100 µM		> 100 µM		> 100 µM				> 100 µM		> 100 µM
CCC1CCc2c(c(=O)oc3c2cc(OC)c2cccc(OC)c23)C1 (configuration not stated)				> 100 µM		> 100 µM		> 100 µM		> 100 µM		> 100 µM		> 100 µM		> 100 µM		> 100 µM		> 100 µM
CCOP(=O)(OCC)OC1C=CC2CCC1C2 (configuration not stated)				> 100 µM		> 100 µM		58.7 µM		> 100 µM		> 100 µM		> 100 µM		> 100 µM		> 100 µM		> 100 µM
CCOc1ccncc1[N+](=O)[O-]		> 100 µM				> 100 µM		> 100 µM		> 100 µM		> 100 µM		> 100 µM		> 100 µM		> 100 µM		> 100 µM
Cc1nn(C(=O)Cc2ccccc2)c2c1C(c1ccc(Cl)cc1)SC(N)=N2 (configuration not stated)		> 100 µM		> 100 µM		> 100 µM		> 100 µM		> 100 µM		> 100 µM		> 100 µM						> 100 µM
CCn1sc2ccccc2c1=O		> 58.4 µM		> 100 µM		30.8 µM		> 100 µM		32.7 µM		19.6 µM		> 100 µM				16.1 µM		11.4 µM
COc1c[c]([Hg][O]C(C)=O)c(OC)c(NC(=O)CC(C)=O)[c]1[Hg][O]C(C)=O			16.3 µM	39 µM	12.6 µM	28.1 µM	2.59 µM	> 100 µM	2.73 µM	7.46 µM	11 µM	23.9 µM	2.32 µM	6.85 µM	19.2 µM	33.3 µM	12.6 µM	27.8 µM	2.26 µM	4.26 µM
Cc1nc(-[n+]2nc(-c3ccncc3)nn2-c2ccccc2)sc1C		> 100 µM				69.2 µM		> 100 µM		> 100 µM		> 100 µM		> 100 µM		50.4 µM		> 100 µM		> 100 µM
